Test results taken from patent US20040231558A1, “Water-color ink” (priority 2001, published 2004).

Legend:
Type in all cases: physicochemical
[1] = Evaluation of light fastness-1 (OD value of printed portion after 100 hours xenon fadeometer); conditions: for (A)-1 light fastness-1: ink prepared as in Example 1 from the salt named in the row, OD value of printed portion after 100 hours xenon fadeometer
Experimental: (§1) The prepared ink was filled in an ink cartridge for a piezo-type ink-jet printer EM-930C (manufactured by Seiko Epson). The printing was performed with this printer, and the light fastness was evaluated. Further, the storage stability of the ink was evaluated.
(A)-1 Evaluation of Light Fastness-1
Printing density (OD value) was measured after irradiating a printed portion with light for 100 hours using a xenon fadeometer (manufactured by Suga Shikenki) to evaluate the light fastness.

[2] = Evaluation of light fastness-2 (OD value of printed portion after 400 hours xenon fadeometer); conditions: ink prepared as in Example 1 from the salt named in the row; OD value of printed portion after 400 hours xenon fadeometer
Experimental: as §1
(A)-2 Evaluation of Light Fastness-2
Printing density (OD value) was measured after irradiating a printed-portion with light for 400 hours using axenon fadeometer (manufactured by Suga Shikenki), and the light fastness was evaluated.

[3] = Evaluation of moisture resistance (image-recorded paper at 40° C. and humidity 85%, visual observation); conditions: for (B) moisture resistance: image-recorded paper at 40° C. and humidity 85%, visually observed
[4] = Evaluation of storage stability of ink (40° C. for 3 months, insoluble matter and clogging); conditions: recording liquid stored at 40° C. for 3 months; insoluble matter and clogging
Experimental: as §1
(C) Evaluation of Storage Stability of Ink:
After a recording liquid was stored at 40° C. for 3 months, it was observedwhether or not an insoluble matterwas precipitated, and whether or not clogging occurred after continuous recording with the foregoing printer for a long period of time.

[5] = ink prepared as in Example 1, for comparative inks in comparison to the ink of the invention

| Compound | (A)-1 light fastness-1 [1] | (A)-2 light fastness-2 [2] | (B) moisture resistance [3] | (C) storage stability [4] | light fastness (in words) [1, 5] | moisture resistance (in words) [3, 5] |
| --- | --- | --- | --- | --- | --- | --- |
| CCOC(=O)Cc1c(N=Nc2cc(C(=O)O)ccc2C(=O)O)c(O)n(CCNc2nc(Cl)nc(NCCn3c(O)c(N=Nc4cc(C(=O)O)ccc4C(=O)O)c(CC(=O)OCC)c(C#N)c3=O)n2)c(=O)c1C#N [Compound 255] | ⊚ | ◯ | ⊚ | ◯ |  |  |
| Cc1c(N=Nc2cc(C(=O)O)ccc2C(=O)O)c(O)n(CCO)c(=O)c1C#N [compound 37] | ⊚ | ⊚ and Δ | ◯ | ◯ and Δ |  |  |
| CCc1c(N=Nc2cc(C(=O)O)ccc2C(=O)O)c(O)n(CCNc2nc(Cl)nc(NCCn3c(O)c(N=Nc4cc(C(=O)O)ccc4C(=O)O)c(CC)c(C#N)c3=O)n2)c(=O)c1C#N [Compound 251] | ⊚ | ⊚ | ⊚ | Δ |  |  |
| Cc1c(N=Nc2cccc(C(=O)O)c2C(=O)O)c(O)n(CC(O)C(O)C(O)C(O)C(O)CO)c(=O)c1C#N (centres unmarked) [compound 29] | ⊚ | ◯ and Δ | ◯ | ◯ and Δ |  |  |
| Cc1c(N=Nc2ccccc2C(=O)O)c(O)n(CCNC(=O)c2cc(C(=O)O)c(C(=O)NCCn3c(O)c(N=Nc4ccccc4C(=O)O)c(C)c(C#N)c3=O)cc2C(=O)O)c(=O)c1C#N [Compound 323] | ⊚ | ⊚ | ⊚ | Δ |  |  |
| Cc1c(N=Nc2cc(C(=O)O)ccc2C(=O)O)c(O)n(CCCNc2nc(Cl)nc(NCCCn3c(O)c(N=Nc4cc(C(=O)O)ccc4C(=O)O)c(C)c(C#N)c3=O)n2)c(=O)c1C#N [Compound 247] | ⊚ | ◯ | ⊚ | ◯ |  |  |
| Cc1c(N=Nc2cc(C(=O)O)ccc2C(=O)O)c(O)n(CCn2c(=O)c3cc4c(=O)n(CCn5c(O)c(N=Nc6cc(C(=O)O)ccc6C(=O)O)c(C)c(C#N)c5=O)c(=O)c4cc3c2=O)c(=O)c1C#N [Compound 342] | ⊚ | ⊚ | ⊚ | ◯ |  |  |
| Cc1c(N=Nc2cc(C(=O)O)ccc2C(=O)O)c(O)n(CCCCCCNC(=O)c2cc(C(=O)NCCCCCCn3c(O)c(N=Nc4cc(C(=O)O)ccc4C(=O)O)c(C)c(C#N)c3=O)c(C(=O)NCCn3c(O)c(N=Nc4cc(C(=O)O)ccc4C(=O)O)c(C)c(C#N)c3=O)cc2C(=O)NCCCCCCn2c(O)c(N=Nc3cc(C(=O)O)ccc3C(=O)O)c(C)c(C#N)c2=O)c(=O)c1C#N [Compound 312] | ⊚ | ⊚ | ⊚ | Δ |  |  |
| Cc1c(N=Nc2cc(C(=O)O)ccc2C(=O)O)c(O)n(CCCNc2nc(NCCn3c(O)c(N=Nc4cc(C(=O)O)ccc4C(=O)O)c(C)c(C#N)c3=O)nc(NCCn3c(O)c(N=Nc4c(C(=O)O)cccc4C(=O)O)c(C)c(C#N)c3=O)n2)c(=O)c1C#N [Compound 274] | ⊚ | ◯ | ⊚ | Δ |  |  |
| CC(C)(C)c1c(N=Nc2cc(C(=O)O)ccc2C(=O)O)c(O)n(CCn2c(=O)c3cc4c(=O)n(CCn5c(O)c(N=Nc6cc(C(=O)O)ccc6C(=O)O)c(C(C)(C)C)c(C#N)c5=O)c(=O)c4cc3c2=O)c(=O)c1C#N [Compound 336] | ⊚ | ⊚⊚ | ⊚ | ◯ |  |  |
| Cc1c(N=Nc2cc(C(=O)O)ccc2C(=O)O)c(O)n(CCCCCCNc2nc(Cl)nc(NCCCCCCn3c(O)c(N=Nc4cc(C(=O)O)ccc4C(=O)O)c(C)c(C#N)c3=O)n2)c(=O)c1C#N [Compound No. 246] | ⊚ | Δ | ⊚ | Δ |  |  |
| Cc1c(N=Nc2cc(C(=O)O)ccc2C(=O)O)c(O)n(CCNc2nc(NCCn3c(O)c(N=Nc4cc(C(=O)O)ccc4C(=O)O)c(C)c(C#N)c3=O)nc(SCCC(=O)O)n2)c(=O)c1C#N [Compound 321] | ⊚ | ◯ | ⊚ | Δ |  |  |
| CCc1c(N=Nc2cc(C(=O)O)ccc2C(=O)O)c(O)n(CCn2c(=O)c3cc4c(=O)n(CCn5c(O)c(N=Nc6cc(C(=O)O)ccc6C(=O)O)c(CC)c(C#N)c5=O)c(=O)c4cc3c2=O)c(=O)c1C#N [Compound 335] | ⊚ | ⊚⊚ | ⊚ | ◯ |  |  |
| N#Cc1c(-c2ccccc2)c(N=Nc2cc(C(=O)O)ccc2C(=O)O)c(O)n(CCNc2nc(Cl)nc(NCCn3c(O)c(N=Nc4cc(C(=O)O)ccc4C(=O)O)c(-c4ccccc4)c(C#N)c3=O)n2)c1=O [Compound 261] | ⊚ | ◯ | ⊚ | Δ |  |  |
| N#Cc1c(C(F)(F)F)c(N=Nc2cc(C(=O)O)ccc2C(=O)O)c(O)n(CCNc2nc(Cl)nc(NCCn3c(O)c(N=Nc4cc(C(=O)O)ccc4C(=O)O)c(C(F)(F)F)c(C#N)c3=O)n2)c1=O [Compound 248] | ⊚ | ⊚ | ⊚ | Δ |  |  |
| Cc1c(N=Nc2cc(C(=O)O)ccc2C(=O)O)c(O)n(Cc2ccc(C(=O)O)c(C(=O)O)c2)c(=O)c1C#N [compound 92] | ⊚ | ⊚⊚ | ⊚ | ◯ |  |  |
| CCc1c(N=Nc2cc(C(=O)O)ccc2C(=O)O)c(O)n(CCCNC(=O)c2cc(C(=O)O)c(C(=O)NCCCn3c(O)c(N=Nc4cc(C(=O)O)ccc4C(=O)O)c(C)c(C#N)c3=O)cc2C(=O)O)c(=O)c1C#N [Compound 280] | ⊚ | ⊚ | ⊚ | ◯ |  |  |
| CCc1c(N=Nc2cc(C(=O)O)ccc2C(=O)O)c(O)n(CCNC(=O)c2ccc(C(=O)NCCn3c(O)c(N=Nc4cc(C(=O)O)ccc4C(=O)O)c(CC)c(C#N)c3=O)c(C(=O)NCCn3c(O)c(N=Nc4cc(C(=O)O)ccc4C(=O)O)c(CC)c(C#N)c3=O)c2)c(=O)c1C#N [Compound 308] | ⊚ | ⊚ | ⊚ | Δ |  |  |
| CCCCc1c(N=Nc2cc(C(=O)O)ccc2C(=O)O)c(O)n(CCNC(=O)c2cc(C(=O)O)c(C(=O)NCCn3c(O)c(N=Nc4cc(C(=O)O)ccc4C(=O)O)c(CCCC)c(C#N)c3=O)cc2C(=O)O)c(=O)c1C#N [Compound 284] | ⊚ | ⊚⊚ | ⊚ | ◯ |  |  |
| N#Cc1c(C(F)(F)F)c(N=Nc2cc(C(=O)O)ccc2C(=O)O)c(O)n(CCNC(=O)c2cc(C(=O)O)c(C(=O)NCCn3c(O)c(N=Nc4cc(C(=O)O)ccc4C(=O)O)c(C(F)(F)F)c(C#N)c3=O)cc2C(=O)O)c1=O [Compound 291] | ⊚ | ⊚⊚ | ⊚ | ◯ |  |  |
| O=C(O)c1nn(-c2ccc(S(=O)(=O)O)cc2)c(O)c1N=Nc1ccc(S(=O)(=O)O)cc1 [C. I. Acid Yellow 23, reference compound] |  |  |  | ◯ | poor | poor |
